In US5164296A, “Assay methods involving ouabain” (priority 1990, dated 1992):
Ends that are not written are not given here.

tested on: rings of aorta from guinea pigs; test: Vasoactive properties in rings of aorta from guinea pigs; parameters: species or system guinea pig; conditions: 170 nM human ouabain; 200 nM plant ouabain
Procedure: The aortic rings were incubated at 37° C. in phosphate buffered saline. The rings were submaximally contracted for 3 to 7 min, every 35 min, with 0.2 or 1.0 μM histamine. […] The apparent half-time for washout of the augmented tension response in the presence of plant ouabain was also much greater than 60 min.

Molecule	effect on baseline tension
C[C@@H]1O[C@@H](O[C@H]2C[C@@H](O)[C@]3(CO)[C@H]4[C@H](O)C[C@]5(C)[C@@H](C6=CC(=O)OC6)CC[C@]5(O)[C@@H]4CC[C@]3(O)C2)[C@H](O)[C@H](O)[C@H]1O [ouabain]	did not affect baseline tension

same assay, conditions: Cavia porcellus, read-out: histamine-evoked tension, % of control

Molecule	activity at 0.2 µM [%]
C[C@@H]1O[C@@H](O[C@H]2C[C@@H](O)[C@]3(CO)[C@H]4[C@H](O)C[C@]5(C)[C@@H](C6=CC(=O)OC6)CC[C@]5(O)[C@@H]4CC[C@]3(O)C2)[C@H](O)[C@H](O)[C@H]1O [ouabain]	146 ± 16

same assay, conditions: upon washout

Molecule	apparent half-time for washout of the augmented tension response
C[C@@H]1O[C@@H](O[C@H]2C[C@@H](O)[C@]3(CO)[C@H]4[C@H](O)C[C@]5(C)[C@@H](C6=CC(=O)OC6)CC[C@]5(O)[C@@H]4CC[C@]3(O)C2)[C@H](O)[C@H](O)[C@H]1O [ouabain]	greater than 60 min

tested on: left atria from guinea pigs; test: Inotropic properties in left atria from guinea pigs; parameters: species or system guinea pig; conditions: Cavia porcellus, read-out: inotropic response
Procedure: Atria were incubated at 37° C. in phosphate buffered saline comprising 130 mM NaCl, 5.4 mM KCl, 1.8 mM MgCl2, 0.4 mM NaH2 PO4, 19 mM NaHCO3 and 5.4 g of glucose (pH 7.3-7.4), and gassed with 95% O2 /5% CO2. Tissues were stimulated at 1 Hz with twice threshold square pulses (0.8 to 1.0 V) of 0.7 to 1.2 msec duration. Resting tension was optimized for maximum isometric force generation. Control records were obtained once the phasic force was stabilized. […] For comparison, 200 nM plant ouabain evoked an inotropic response of 311±41% (N=4 experiments) which returned to normal with a half-time of approximately 5 min upon washout.

Molecule	activation at 0.2 µM [%]
C[C@@H]1O[C@@H](O[C@H]2C[C@@H](O)[C@]3(CO)[C@H]4[C@H](O)C[C@]5(C)[C@@H](C6=CC(=O)OC6)CC[C@]5(O)[C@@H]4CC[C@]3(O)C2)[C@H](O)[C@H](O)[C@H]1O [ouabain]	311 ± 41

same assay, conditions: upon washout

Molecule	apparent half-time for washout of the inotropic response
C[C@@H]1O[C@@H](O[C@H]2C[C@@H](O)[C@]3(CO)[C@H]4[C@H](O)C[C@]5(C)[C@@H](C6=CC(=O)OC6)CC[C@]5(O)[C@@H]4CC[C@]3(O)C2)[C@H](O)[C@H](O)[C@H]1O [ouabain]	approximately 5 min

target: T1, (Na^+ +K^+)ATPase (Canis lupus familiaris, UniProt P50997); test: Inhibition of (Na^+ +K^+)ATPase activity (coupled optical assay); type: biochemical, dog; conditions: purified dog kidney enzyme, 37° C.
T1 construct: (Na^+ +K^+)ATPase was purified from the outer medulla of dog kidney; from tissue; host or cells: dog kidney outer medulla, purified membrane enzyme
Procedure: (§1) More specifically, (Na^+ +K^+)ATPase was purified from the outer medulla of dog kidney using the angle rotor procedure (Jorgensen, P.L., Biochim. Biophys. Acta, 356:36-52 (1974)) and stored frozen at -60° C. at 1.0 mg/ml in 25 mM imidazole-HCl (pH 7.5) and 1.0 mM EDTA, in small aliquots. (Na^+ +K^+)ATPase activity was determined at 37° C. from rate measurements in 1.0 ml of coupled optical assay mixture comprising 20 mM KCl, 100 mM NaCl, 4.5 mM MgSO4, 5.0 mM EGTA, 3.0 mM ATP-Na2, 1.2 mM phosphoenol-pyruvate-tricyclohexylammonium, 0.3 mM NADH, 100 mM TES-Tris (ph 7.4), 5.0 units of lactate dehydrogenase, and 5.0 units of pyruvate kinase (Hamlyn, J.M. et al, Nature, 300:650-652 (1982)). (Na^+ +K^+)ATPase activity was 99% ouabain-inhibitable with activities of 10-18 μmol/min/mg of membrane protein. Maximally effective concentrations of digitalis-like activity had no effect on the enzymatic components of the coupled optical assay as determined by inspection of rates in response to addition of 20-50 μM ADP. The maximal capacity of the coupled optical assay was at least 500-2000 fold greater than the typical maximal hydrolytic rate of the (Na^+ +K^+)ATPase and was not rate limiting under any assay condition described herein.
The inhibition of (Na^+ +K^+)ATPase was carried out as described above.

Molecule	(Na^+ +K^+)ATPase activity ouabain-inhibitable [%]
C[C@@H]1O[C@@H](O[C@H]2C[C@@H](O)[C@]3(CO)[C@H]4[C@H](O)C[C@]5(C)[C@@H](C6=CC(=O)OC6)CC[C@]5(O)[C@@H]4CC[C@]3(O)C2)[C@H](O)[C@H](O)[C@H]1O [ouabain]	99

target: T1, (Na^+ +K^+)ATPase; test: Competition for ^3 H-ouabain binding to purified (Na^+ +K^+)ATPase; parameters: species or system dog; conditions: type II conditions
Procedure: as §1
Competition for ^3 H-ouabain (Amersham Corp. or DuPont-New England Nuclear) binding was carried out in 670 μl of binding buffer comprising, in final concentrations, 10 mM TES-Tris (pH 7.4), 0.5 mM EDTA, 5.0 mM MgCl2 and 5.0 mM Na2 HPO4 (hereinafter "binding buffer") and 50 nM ouabain containing ^3 H-ouabain tracer, and including the unknown sample. Binding was initiated by addition of 0.1-2 μg of purified (Na^+ +K^+)ATPase and the reaction performed for 2 hr at 37° C. […] Trapped ^3 H-ouabain was determined by scintillation counting, following 12 hr of soaking the filters in 4.0 ml of Beckman Ready Protein ™ scintillation cocktail (Beckman, Palo Alto, Calif.). […] All binding data were corrected for quench, and specific binding was expressed as pmol/mg of enzyme protein. […]

Molecule	^3 H-ouabain bound (typical values)
C[C@@H]1O[C@@H](O[C@H]2C[C@@H](O)[C@]3(CO)[C@H]4[C@H](O)C[C@]5(C)[C@@H](C6=CC(=O)OC6)CC[C@]5(O)[C@@H]4CC[C@]3(O)C2)[C@H](O)[C@H](O)[C@H]1O [^3 H-ouabain]	75-85 pmol/mg of enzyme protein

tested on: polyclonal anti-ouabain antisera; test: not given; type: binding, rabbit; conditions: Table 1, polyclonal anti-ouabain antisera
Procedure: Polyclonal anti-ouabain antisera was obtained from the immunized rabbits by collecting blood from the central ear artery, allowing the blood to clot for 2 hr at room temperature, centrifuging the clotted blood at 1000 ×g for 10 min, and removing the polyclonal anti-ouabain antisera.
The polyclonal antisera was extensively characterized by testing the degree to which it cross-reacted with (1) other substances known to be present in human body fluids and tissues, and (2) cardiotonic steroids closely related to ouabain but not known to be present in human body fluids and tissues.

Molecule	cross-reactivity (relative to ouabain)
C[C@]12CCC(=O)C=C1CC[C@@H]1[C@@H]2[C@@H](O)C[C@]2(C=O)[C@@H](C(=O)CO)CC[C@@H]12 [Aldosterone]	0.012%
NC(=O)CC[C@@H]1NC(=O)[C@H](Cc2ccccc2)NC(=O)[C@H](Cc2ccc(O)cc2)NC(=O)[C@@H](N)CSSC[C@@H](C(=O)N2CCC[C@H]2C(=O)N[C@@H](CCCN=C(N)N)C(=O)NCC(N)=O)NC(=O)[C@H](CC(N)=O)NC1=O [Arginine vasopressin]	None detected
CC(=O)O[C@]1(C(C)=O)CC[C@H]2[C@@H]3C=C(Cl)C4=CC(=O)CC[C@]4(C)[C@H]3CC[C@@]21C [Chlormadinone acetate]	None detected
CC(C)CCC[C@@H](C)[C@H]1CC[C@H]2[C@@H]3CC=C4C[C@@H](O)CC[C@]4(C)[C@H]3CC[C@]12C [Cholesterol]	None detected
O=C(O)CC(O)(CC(=O)O)C(=O)O [Citrate]	None detected
C[C@]12C[C@H](O)[C@H]3[C@@H](CCC4=CC(=O)CC[C@@]43C)[C@@H]1CC[C@@H]2C(=O)CO [Corticosterone]	0.0035%
C[C@]12CC[C@H](OS(=O)(=O)O)CC1=CC[C@@H]1[C@@H]2CC[C@]2(C)C(=O)CC[C@@H]12 [Dehydroisoandrosterone-3-sulfate]	None detected
C[C@]12CC[C@H](O)CC1=CC[C@@H]1[C@@H]2CC[C@]2(C)C(=O)CC[C@@H]12 [Dehydroisoandrosterone]	None detected
C[C@]12CC[C@H]3[C@@H](CCC4=CC(=O)CC[C@@]43C)[C@@H]1CC[C@@H]2C(=O)CO [Deoxycorticosterone]	0.0046%
C[C@H]1O[C@@H](O[C@H]2[C@@H](O)C[C@H](O[C@H]3[C@@H](O)C[C@H](O[C@H]4CC[C@@]5(C)[C@H](CC[C@@H]6[C@@H]5CC[C@]5(C)[C@@H](C7=CC(=O)OC7)CC[C@]65O)C4)O[C@@H]3C)O[C@@H]2C)C[C@H](O)[C@@H]1O [Digitoxin]	28%
C[C@H]1O[C@@H](O[C@H]2[C@@H](O)C[C@H](O[C@H]3[C@@H](O)C[C@H](O[C@H]4CC[C@@]5(C)[C@H](CC[C@@H]6[C@@H]5C[C@@H](O)[C@]5(C)[C@@H](C7=CC(=O)OC7)CC[C@]65O)C4)O[C@@H]3C)O[C@@H]2C)C[C@H](O)[C@@H]1O [Digoxin]	5.2%
C[C@@H]1O[C@@H](O[C@H]2C[C@@H](O)[C@]3(CO)[C@H]4[C@H](O)C[C@]5(C)[C@@H](C6COC(=O)C6)CC[C@]5(O)[C@@H]4CC[C@]3(O)C2)[C@H](O)[C@H](O)[C@H]1O (stereo partly drawn) [Dihydroouabain]	0.16%
C[C@]12CCC(=O)C=C1CC[C@@H]1[C@@H]2[C@@H](O)C[C@@]2(C)[C@H]1CC[C@]2(O)C(=O)CO [Hydrocortisone]	None detected
CC(=O)O[C@H]1C[C@H](O[C@H]2[C@@H](O)C[C@H](O[C@H]3[C@@H](O)C[C@H](O[C@H]4CC[C@@]5(C)[C@H](CC[C@@H]6[C@@H]5C[C@@H](O)[C@]5(C)[C@@H](C7=CC(=O)OC7)CC[C@]65O)C4)O[C@@H]3C)O[C@@H]2C)O[C@H](C)[C@H]1O[C@@H]1O[C@H](CO)[C@@H](O)[C@H](O)[C@H]1O [Lanatoside C]	2.49%
C[C@]12C[C@@H](O)[C@H]3[C@@H](CC[C@]4(O)C[C@@H](O)C[C@@H](O)[C@]34CO)[C@@]1(O)CC[C@@H]2C1=CC(=O)OC1 [Ouabagenin]	40%
CC(=O)[C@H]1CC[C@H]2[C@@H]3CCC4=CC(=O)CC[C@]4(C)[C@H]3CC[C@]12C [Progesterone]	0.0011%
C[C@]12CC[C@H]3[C@@H](CC[C@]4(O)C[C@@H](O)CC[C@]34C=O)[C@@]1(O)CC[C@@H]2C1=CC(=O)OC1 [Strophanthidin]	66%
C[C@]12CC[C@@H]3c4ccc(O)cc4CC[C@H]3[C@@H]1CC[C@@H]2O [β-estradiol]	None detected
Angiotensin I (DRVYIHPFHL; Angiotensin-1; UniProt P01019 25-34, looked up)	None detected
Angiotensin II	None detected
Atrial natriuretic peptide (SLRRSSCFGGRMDRIGAQSGLGCNSFRY; ends and bridges not checked; cysteine pairing not given here; UniProt P01160 124-151, looked up)	None detected
Renin (protein, UniProt P00797 67-406, looked up) Renin: LTLGNTTSSVILTNYMDTQYYGEIGIGTPPQTFKVVFDTGSSNVWVPSSKCSRLYTACVYHKLFDASDSSSYKHNGTELTLRYSTGTVSGFLSQDIITVGGITVTQMFGEVTEMPALPFMLAEFDGVVGMGFIEQAIGRVTPIFDNIISQGVLKEDVFSFYYNRDSENSQSLGGQIVLGGSDPQHYEGNFHYINLIKTGVWQIQMKGVSVGSSTLLCEDGCLALVDTGASYISGSTSSIEKLMEALGAKKRLFDYVVKCNEGPTLPDISFHLGGKEYTLTSADYVFQESYSSKKLCTLAIHAMDIPPPTGPTWALGATFIRKFYTEFDRRNNRIGFALAR	None detected

same assay, conditions: Table 1, printed without unit

Molecule	cross-reactivity (relative to ouabain)
C[C@]12CC[C@H]3[C@@H](CCC4=CC(=O)CC[C@@]43C)[C@@H]1CC[C@@H]2O [Testosterone]	0.0042
